Patent US20120171123A1, “USES AND COMPOSITIONS FOR TREATMENT OF RHEUMATOID ARTHRITIS” (priority 2006, published 2012)
Marks after values point to notes of the source that are not given here.

Experiments:
[1] = system: MTX-naïve adult patients with active, early RA (<3 years); experiment: Study J: CRP normalization; assay type: in vivo, human; conditions: for Patient numbers: CRP Abnormal at Baseline, Abnormal at 1 Year / Patient numbers: CRP Normal at Baseline, Abnormal at 1 Year: Abnormal CRP >0.8 mg/dL; for Patient numbers: CRP Abnormal at Baseline, Normal at 1 Year / Patient numbers: CRP Normal at Baseline, Normal at 1 Year: Normal CRP ≦0.8 mg/dL
Protocol: Baseline demographics and clinical characteristics of the patients enrolled in this study are described in Example 7. […] After 1 and 2 years of therapy, the percentages of patients with ACR90 responses, TJC=0, SJC=0, HAQ=0, morning stiffness=0 minutes, and normal CRP were determined. Data are from the intention-to-treat (ITT) population with imputation used for missing values. Results were compared with the percentages of patients who achieved DAS28<2.6 or a Major Clinical Response (MCR).
Radiographic progression was assessed by mean change from baseline in Total Sharp Score (TSS) and stratified into those with (ΔTSS>0.5) and without (Δ≦TSS 0.5). Patients were categorized as either having radiographic progression at 1 year (ΔTSS>0.5) or not (Δ≦TSS 0.5). A logistic regression model was used to identify predictors of radiographic disease progression by testing several baseline characteristics, including age, disease duration, RF status, TJC, SJC, joint erosions, and CRP. For analyses of CRP, patients were categorized as normal (CRP≦0.8 mg/dL) or abnormal (CRP>0.8 mg/dL).

[2] = system: MTX-naïve adult patients with active, early RA (<3 years); experiment: Study J: treatment emergent adverse events; conditions: 2 years
From the text: Study J was a 2-year randomized controlled trial in patients with early RA (disease duration<3 years). Participants in these clinical trials and in other phase Mb studies, were routinely evaluated for safety. Reports of serious adverse events (SAE) were tabulated using MedDRA coding by events per 100-patient-years (E/100PY). SAE rates were compared with respect to disease duration between patients with early (<3 yrs) and long-standing RA.

[3] = system: MTX-naïve adult patients with active, early RA (<3 years); experiment: Study J (adalimumab 40 mg eow + MTX vs adalimumab alone vs MTX alone, 2 years): ACR20/50/70/90 response and Major Clinical Response; assay type: in vivo, human; conditions: for Major Clinical Response (ACR70 for ≧6 continuous months): over 2 years
Protocol: This study was a 2-year, double-blind, active-comparator-controlled Phase III study conducted at 149 sites in North America, Europe, and Australia. […] MTX-naïve adult patients with active, early RA (<3 years) were included in the study. Further inclusion criteria included: SJC≧8 and TJC≧10; ESR≧28 mm/hr or CRP≧1.5 mg/dL; and RF-positivity or at least one joint erosion. […] MTX dosages were rapidly optimized to a maximum of 20 mg weekly.
The co-primary endpoints, comparing MTX alone with the combination at 1 year, were the ACR50 response (using non-responder imputation), and inhibition of radiographic progression, as measured by change in total Sharp score (TSS). In this study, the term “Major Clinical Response” (MCR) meant a continuous ACR70 response for 6 or more consecutive months.
The results of this study were evaluated using multiple criteria for clinical remission. This study (Study J) was a 2-year, double-blind, Phase III study.
(§1) Secondary endpoints included DAS28<2.6 at year 1 and Major Clinical Response (MCR=ACR70 response for ≧6 continuous months during a 2-year period).
Study J was a 2-year, double-blind, Phase III study. […] MTX dosages were rapidly optimized to a maximum of 20 mg weekly. Mean changes in total Sharp score (TSS) were measured for patients who achieved American College of Rheumatology (ACR) response (ACR20, ACR50, and ACR70), as well as clinical remission by Disease Activity Score 28 (DAS28<2.6).
(§2) At 1 and 2 years, the American College of Rheumatology (ACR) responses (ACR20, ACR50, and ACR70), the Disease Activity Score 28 (DAS28), and the change (Δ) in Total Sharp Score (TSS) were determined for all patients. Results were analyzed for the intention-to-treat (ITT) population using imputation for missing data. Clinical remission was defined as DAS28<2.6. The mean ΔTSS values at 1 year and 2 years (N=791) were determined for patients in each ACR response category (ACR20/50/70) and for patients with DAS28<2.6
Patients in the Ada+MTX and the MTX arms were classified according to level of clinical response (non-responder (<ACR20), ACR20, ACR50, or ACR70) and radiographic progression (Yes or No (ΔTSS≦0.5)). The ΔTSS was analyzed overall, and for ACR subgroups. This included determination of mean ΔTSS and probability plots. Analyses used observed data from patients completing 6 months or 2 years of treatment (no imputation).

[4] = system: MTX-naïve adult patients with active, early RA (<3 years); experiment: Study J: clinical remission by DAS28<2.6; assay type: in vivo, human
Protocol: Clinical remission, defined as DAS28<2.6, is described below in Table 25.
as §1, §2

[5] = system: MTX-naïve adult patients with early RA (<3 years); experiment: Study J: escalation of injectable medicine from eow to weekly dosing; assay type: in vivo, human; conditions: for ACR20 following dosage escalation, % of all patients in arm / ACR70 following dosage escalation, % of all patients in arm / DAS28 < 2.6 following dosage escalation, % of all patients in arm / ACR60 following dosage escalation, % of all patients in arm: patients with no prior ACR20 response, NRI; for ACR50, % of responders / ACR70, % of responders: patients whose dosages of adalimumab or placebo injections were escalated; for patients who increased injectable medication to weekly: during year 1 (placebo injections in MTX arm)
Protocol: Study J was a 2-year, double-blind, active comparator-controlled, Phase III study. […] In patients receiving ADA+MTX or MTX monotherapy, the 7.5 mg MTX weekly dosage increased to 20 mg over 8 weeks, as tolerated and as needed. Monotherapy patients received either placebo pills (adalimumab arm) or placebo injections (MTX arm). Efficacy outcomes measured included ACR response, DAS28 remission, major clinical response, and radiographic change from baseline.
MTX optimization was required before starting weekly injections (to 20 mg weekly, maximum). Once initiated, weekly dosing of injectable medicine was to be maintained until end of study. Criteria for identification of dosage escalators were a sequence of 4 consecutive injections for which the interval for every two consecutive injections was ≦10 days, and/or that the date of escalation, defined as the second of the 4 injections, had to be on or after Week 16 in Year 1. Three dosage escalator categories were defined, based on best ACR response rate achieved any time prior to escalation: Group A=ACR non-responders (never achieved ACR20 prior to dosage escalation), Group B=Partial responders (achieved ACR20 or ACR50 at least once prior to escalation, but never ACR70), and Group C=ACR70 responders (achieved ACR70 at least once prior to escalation). Data are from the intention-to-treat (ITT) population, with missing data analyzed by non-responder imputation (NRI) for clinical measures and by linear imputation for total Sharp scores (TSS).

[6] = 6 months, completers, observed data
[7] = week 52 (1 year), non-responder imputation

## CN(Cc1cnc2nc(N)nc(N)c2n1)c1ccc(C(=O)N[C@@H](CCC(=O)O)C(=O)O)cc1 [mtx alone, methotrexate]
[1]; 1 year
  Normal CRP (≦0.8 mg/dL): 35 % patients
[1]; 1 year, listed as MTX Alone
  patients with abnormal baseline CRP that became normal: 53% (n = 159)
[1]; 1 year, listed as MTX alone
  patients with abnormal baseline CRP that became normal: 53%
[1]; 2 years
  Normal CRP (≦0.8 mg/dL): 29 % patients
[1]
  Patient numbers: CRP Abnormal at Baseline, Abnormal at 1 Year: 75
  Patient numbers: CRP Normal at Baseline, Abnormal at 1 Year: 7
  Patient numbers: CRP Abnormal at Baseline, Normal at 1 Year: 84
  Patient numbers: CRP Normal at Baseline, Normal at 1 Year: 21
[2]
  All infectious AE: 119 Events/100-PY
  Demyelination: 0.0 Events/100-PY
  Lymphoma: 0.2 Events/100-PY
  Malignancies: 0.9 Events/100-PY
  Pancytopenia: 0.2 Events/100-PY
  Serious AE: 15.9 Events/100-PY
  Serious Infectious AE: 1.6 Events/100-PY
  Tuberculosis: 0.0 Events/100-PY
[3]; 2 years, completers, observed data
  ACR70: 43%
[3]; [6]
  ACR20: 79.3%
  ACR50: 51.6%
  ACR70: 28.6%
[3]
  Major Clinical Response (ACR70 for ≧6 continuous months): 27 % of patients
[3]; week 52 (1 year)
  ACR70: 28 % of patients
  ACR90: 13 % of patients
[3]; [7]
  ACR20: 63# % of patients
  ACR50: 46 % of patients
[3]; week 52 (1 year), non-responder imputation, listed as MTX alone
  ACR20: 63 % of patients
[3]; week 104 (2 years)
  ACR20: 56 % of patients
  ACR50: 43 % of patients
  ACR70: 28 % of patients
  ACR90: 13 % of patients
[4]; week 52 (1 year)
  clinical remission, DAS28 < 2.6: 21 % of patients
[4]; week 104 (2 years)
  clinical remission, DAS28 < 2.6: 25 % of patients
[5]; 1 year
  ACR20 following dosage escalation, % of all patients in arm: 3.5%
  ACR70 following dosage escalation, % of all patients in arm: 0.8%
  DAS28 < 2.6 following dosage escalation, % of all patients in arm: 0.0%
[5]; 2 years, eow dosing
  No radiographic progression, % of patients: 36.6%
[5]; 2 years
  ACR20 following dosage escalation, % of all patients in arm: 3.6%
  ACR70 following dosage escalation, % of all patients in arm: 1.2%
  DAS28 < 2.6 following dosage escalation, % of all patients in arm: 0.8%
[5]; 2 years, weekly dosing
  No radiographic progression, % of patients: 21.2%
[5]; Year 1
  ACR50, % of responders: 17%
  ACR70, % of responders: 8%
[5]; Year 2
  ACR50, % of responders: 21%
  ACR70, % of responders: 12%
[5]
  patients who increased injectable medication to weekly: 20%

## adalimumab: human anti-TNF mAb (HUMIRA, Abbott Laboratories), described in U.S. Pat. No. 6,090,382 as D2E7
[1]; 1 year
  Normal CRP (≦0.8 mg/dL): 34 % patients
[1]; 1 year, listed as Adalimumab Alone
  patients with abnormal baseline CRP that became normal: 52% (n = 150)
[1]; 2 years
  Normal CRP (≦0.8 mg/dL): 34 % patients
[1]
  Patient numbers: CRP Abnormal at Baseline, Abnormal at 1 Year: 72
  Patient numbers: CRP Normal at Baseline, Abnormal at 1 Year: 4
  Patient numbers: CRP Abnormal at Baseline, Normal at 1 Year: 78
  Patient numbers: CRP Normal at Baseline, Normal at 1 Year: 33
[2]
  Tuberculosis: 0.0 Events/100-PY
[3]
  Major Clinical Response (ACR70 for ≧6 continuous months): 25 % of patients
[3]; week 52 (1 year)
  ACR70: 26 % of patients
  ACR90: 8 % of patients
[3]; [7]
  ACR20: 54 % of patients
  ACR50: 42 % of patients
[3]; week 104 (2 years)
  ACR20: 50 % of patients
  ACR50: 37 % of patients
  ACR70: 28 % of patients
  ACR90: 9 % of patients
[4]; week 52 (1 year)
  clinical remission, DAS28 < 2.6: 23 % of patients
[4]; week 104 (2 years)
  clinical remission, DAS28 < 2.6: 25 % of patients
[5]; 1 year
  ACR20 following dosage escalation, % of all patients in arm: 1.8%
  ACR60 following dosage escalation, % of all patients in arm: 1.6%
  ACR70 following dosage escalation, % of all patients in arm: 0 (0) %
  DAS28 < 2.6 following dosage escalation, % of all patients in arm: 0.4%
[5]; 2 years, eow dosing
  No radiographic progression, % of patients: 48.8%
[5]; 2 years
  ACR20 following dosage escalation, % of all patients in arm: 2.6%
  ACR60 following dosage escalation, % of all patients in arm: 0.4%
  ACR70 following dosage escalation, % of all patients in arm: 0.4%
  DAS28 < 2.6 following dosage escalation, % of all patients in arm: 0.4%
[5]; 2 years, weekly dosing
  No radiographic progression, % of patients: 31.9%
[5]; Year 1
  ACR50, % of responders: 17%
  ACR70, % of responders: 6%
[5]; Year 2
  ACR50, % of responders: 16%
  ACR70, % of responders: 10%
[5]
  patients who increased injectable medication to weekly: 25%
